In assay [1] the target is wt PikAIV M6 (Streptomyces venezuelae, UniProt Q9ZGI2). Description: SDS-PAGE autoradiography of self-loading. The conditions noted are these: 0.4 mM; HEPES pH 7.4, RT, 5 min; covalent; labelled compound. It counts as biochemical.
Assay [2] deals with T1, wt EryAIII M6 (Saccharopolyspora erythraea, UniProt Q03133).
T1 sequence (Q03133 1468-2900 limits assumed): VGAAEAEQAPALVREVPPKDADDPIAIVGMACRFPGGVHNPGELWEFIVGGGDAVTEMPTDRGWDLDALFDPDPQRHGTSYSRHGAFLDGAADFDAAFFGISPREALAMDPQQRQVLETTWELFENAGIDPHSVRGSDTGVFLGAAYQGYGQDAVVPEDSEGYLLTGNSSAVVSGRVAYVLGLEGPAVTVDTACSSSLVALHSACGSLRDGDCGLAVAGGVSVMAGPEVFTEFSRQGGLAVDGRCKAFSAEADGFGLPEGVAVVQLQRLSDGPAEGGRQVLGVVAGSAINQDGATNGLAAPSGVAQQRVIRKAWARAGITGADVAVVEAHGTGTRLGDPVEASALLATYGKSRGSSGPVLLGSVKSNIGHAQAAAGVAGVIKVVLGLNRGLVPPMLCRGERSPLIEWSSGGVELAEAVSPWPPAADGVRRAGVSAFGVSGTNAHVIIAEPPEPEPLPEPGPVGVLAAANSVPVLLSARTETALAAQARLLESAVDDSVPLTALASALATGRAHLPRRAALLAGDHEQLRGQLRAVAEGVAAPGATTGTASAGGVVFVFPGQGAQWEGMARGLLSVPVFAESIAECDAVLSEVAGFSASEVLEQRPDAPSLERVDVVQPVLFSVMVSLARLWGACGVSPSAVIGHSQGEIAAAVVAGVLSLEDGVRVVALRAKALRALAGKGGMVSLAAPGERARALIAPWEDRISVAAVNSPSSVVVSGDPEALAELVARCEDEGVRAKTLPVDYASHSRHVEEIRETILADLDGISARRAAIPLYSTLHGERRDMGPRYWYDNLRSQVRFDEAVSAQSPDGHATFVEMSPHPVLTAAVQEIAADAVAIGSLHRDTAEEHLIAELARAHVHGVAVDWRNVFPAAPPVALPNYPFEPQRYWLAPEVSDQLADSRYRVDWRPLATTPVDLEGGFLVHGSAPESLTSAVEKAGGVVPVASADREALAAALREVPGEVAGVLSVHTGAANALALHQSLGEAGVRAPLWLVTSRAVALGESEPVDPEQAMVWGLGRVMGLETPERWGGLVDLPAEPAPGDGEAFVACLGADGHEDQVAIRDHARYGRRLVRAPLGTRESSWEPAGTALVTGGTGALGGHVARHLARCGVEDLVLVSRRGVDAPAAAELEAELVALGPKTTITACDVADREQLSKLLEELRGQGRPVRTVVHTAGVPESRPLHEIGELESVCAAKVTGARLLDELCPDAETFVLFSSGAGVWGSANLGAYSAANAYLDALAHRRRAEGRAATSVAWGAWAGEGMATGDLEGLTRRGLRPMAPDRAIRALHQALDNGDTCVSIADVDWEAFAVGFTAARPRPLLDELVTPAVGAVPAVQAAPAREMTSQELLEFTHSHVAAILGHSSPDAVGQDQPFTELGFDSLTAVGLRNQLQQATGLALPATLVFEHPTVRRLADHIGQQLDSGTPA
The assay is described as follows: SDS-PAGE autoradiography of self-loading. The assay is classed as biochemical. To be noted: HEPES pH 7.4, RT; covalent; labelled compound; data not shown.

Sequence of wt PikAIV M6 (Q9ZGI2 whole entry): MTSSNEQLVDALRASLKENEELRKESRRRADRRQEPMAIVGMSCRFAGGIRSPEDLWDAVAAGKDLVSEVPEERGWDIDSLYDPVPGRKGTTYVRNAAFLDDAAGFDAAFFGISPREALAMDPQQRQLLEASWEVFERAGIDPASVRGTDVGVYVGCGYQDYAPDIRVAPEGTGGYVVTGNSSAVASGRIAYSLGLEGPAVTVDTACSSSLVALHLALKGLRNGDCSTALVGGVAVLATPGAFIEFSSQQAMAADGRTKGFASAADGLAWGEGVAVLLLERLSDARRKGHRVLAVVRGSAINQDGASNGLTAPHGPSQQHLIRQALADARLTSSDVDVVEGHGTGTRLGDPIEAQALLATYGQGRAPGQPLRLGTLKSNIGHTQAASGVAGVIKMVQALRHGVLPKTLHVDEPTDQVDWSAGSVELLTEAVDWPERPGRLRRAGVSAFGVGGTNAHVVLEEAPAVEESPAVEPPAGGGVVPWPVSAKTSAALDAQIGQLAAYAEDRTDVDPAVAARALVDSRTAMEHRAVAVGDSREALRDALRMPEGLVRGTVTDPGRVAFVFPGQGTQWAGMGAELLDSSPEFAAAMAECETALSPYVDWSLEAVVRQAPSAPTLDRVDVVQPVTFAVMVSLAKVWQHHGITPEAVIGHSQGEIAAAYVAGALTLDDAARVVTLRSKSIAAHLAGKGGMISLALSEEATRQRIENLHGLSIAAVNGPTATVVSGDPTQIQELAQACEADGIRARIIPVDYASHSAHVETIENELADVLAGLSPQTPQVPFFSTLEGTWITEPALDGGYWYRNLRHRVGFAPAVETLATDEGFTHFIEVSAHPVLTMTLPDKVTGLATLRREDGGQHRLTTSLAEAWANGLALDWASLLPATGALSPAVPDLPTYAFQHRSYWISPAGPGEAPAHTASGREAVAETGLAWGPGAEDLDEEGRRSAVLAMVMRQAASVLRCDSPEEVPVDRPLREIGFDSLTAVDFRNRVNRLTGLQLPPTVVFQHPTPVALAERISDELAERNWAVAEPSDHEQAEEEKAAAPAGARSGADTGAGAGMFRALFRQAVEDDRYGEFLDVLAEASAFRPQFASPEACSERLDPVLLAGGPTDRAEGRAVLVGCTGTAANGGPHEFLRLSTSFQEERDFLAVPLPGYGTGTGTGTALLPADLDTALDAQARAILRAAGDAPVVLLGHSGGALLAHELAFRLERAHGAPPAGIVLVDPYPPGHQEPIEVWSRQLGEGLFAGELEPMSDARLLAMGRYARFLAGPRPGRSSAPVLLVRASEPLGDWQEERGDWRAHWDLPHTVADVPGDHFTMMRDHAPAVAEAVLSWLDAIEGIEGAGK

With `CC(C(=O)O)C(=O)SCCNC(=O)CCNC(=O)[C@H](O)C(C)(C)COP(=O)(O)OP(=O)(O)OC[C@H]1O[C@@H](n2cnc3c(N)ncnc32)[C@H](O)[C@@H]1OP(=O)(O)O` (some centres unmarked) [methylmalonyl-CoA], the “SDS-PAGE autoradiography of self-loading” value in assay [1] is “The wt PikAIV M6 was able to self-load and transfer methylmalonyl-CoA, but not malonyl-CoA”; in assay [2], “wt EryAIII M6 was able to self-load methylmalonyl-CoA”.

These data come from PMC2861360 (Chemistry & biology, 2008).
